The source made the active and inactive calls.
Tests used:
[1] = target: Long-chain-fatty-acid--AMP ligase FadD28 (Mycobacterium tuberculosis, UniProt P9WQ59); experiment: Fluorescence polarization aasay to screen for inhibitors that compete for the binding of FadD28 to a bisubstrate Measured in Biochemical System Using Plate Reader - 2147-01_Inhibitor_Dose_CherryPick_Activity.; format: functional, Mycobacterium tuberculosis H37Rv
[2] = target: T1, Sentrin-specific protease 8 (Homo sapiens, UniProt Q96LD8); format: functional
T1 sequence (Q96LD8 whole entry): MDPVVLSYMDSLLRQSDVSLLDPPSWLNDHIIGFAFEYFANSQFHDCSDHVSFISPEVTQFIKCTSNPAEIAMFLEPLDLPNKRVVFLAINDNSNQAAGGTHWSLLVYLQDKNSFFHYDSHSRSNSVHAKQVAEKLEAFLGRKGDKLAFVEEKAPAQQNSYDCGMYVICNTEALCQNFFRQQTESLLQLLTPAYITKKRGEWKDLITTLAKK

[3] = control 3'UTR Renilla luciferase suppression, dose response, counter-screen for Shn3 inhibitor project, cell-based, Clone20-Shn3RL, cherry-picked (AID 624133); format: functional
[4] = cytotoxicity toward NIH3T3 fibroblasts, dose response, counter-screen, cell-based, ATP luminescence, mouse fibroblasts (AID 2010); format: functional;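 also: cells exposed to compound for about 90 hours before reading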
[5] = inhibitors of intracellular T. cruzi replication, confirmation, NIH3T3 host cells, beta-gal luminescence (AID 2044); format: functional, cell-based;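 also: intracellular parasites grown in NIH/3T3 mouse fibroblasts as host cells; luminescent beta-galactosidase reporter signal from transgenic T. cruzi replicating inside host cells; inhibitors lower the luminescence signal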
[6] = target: T1, Sentrin-specific protease 8; format: functional; remark: listed apart in the source
[7] = HepG2 cell cytotoxicity, dose response, cytotoxicity control for Shn3 inhibitor project, CellTiter-Glo, cherry-picked (AID 624134); format: functional, cell-based
[8] = target: T2, Caspase-3 (Homo sapiens, UniProt P42574); experiment: Dose-response confirmation of uHTS inhibitor hits of Sentrin-Specific Protease 8 in a Caspase-3 Fluorescence assay.; format: functional
T2 sequence (P42574 whole entry): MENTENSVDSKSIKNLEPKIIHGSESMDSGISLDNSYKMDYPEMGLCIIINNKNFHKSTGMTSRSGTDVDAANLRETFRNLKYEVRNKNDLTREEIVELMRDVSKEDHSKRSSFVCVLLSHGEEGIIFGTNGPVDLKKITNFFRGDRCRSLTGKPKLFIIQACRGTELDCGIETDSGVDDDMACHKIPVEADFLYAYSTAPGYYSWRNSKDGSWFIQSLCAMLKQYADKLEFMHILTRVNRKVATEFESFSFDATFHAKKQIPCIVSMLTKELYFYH

[9] = cells; format: functional
[10] = target: Heat shock protein HSP 90-alpha (Homo sapiens, UniProt P07900); format: functional, organism-based
[11] = target: T3, Methionyl-tRNA synthetase, putative (Trypanosoma brucei brucei, UniProt Q38C91); format: functional, Trypanosoma brucei brucei strain 927/4 GUTat10.1
T3 sequence (Q38C91 whole entry): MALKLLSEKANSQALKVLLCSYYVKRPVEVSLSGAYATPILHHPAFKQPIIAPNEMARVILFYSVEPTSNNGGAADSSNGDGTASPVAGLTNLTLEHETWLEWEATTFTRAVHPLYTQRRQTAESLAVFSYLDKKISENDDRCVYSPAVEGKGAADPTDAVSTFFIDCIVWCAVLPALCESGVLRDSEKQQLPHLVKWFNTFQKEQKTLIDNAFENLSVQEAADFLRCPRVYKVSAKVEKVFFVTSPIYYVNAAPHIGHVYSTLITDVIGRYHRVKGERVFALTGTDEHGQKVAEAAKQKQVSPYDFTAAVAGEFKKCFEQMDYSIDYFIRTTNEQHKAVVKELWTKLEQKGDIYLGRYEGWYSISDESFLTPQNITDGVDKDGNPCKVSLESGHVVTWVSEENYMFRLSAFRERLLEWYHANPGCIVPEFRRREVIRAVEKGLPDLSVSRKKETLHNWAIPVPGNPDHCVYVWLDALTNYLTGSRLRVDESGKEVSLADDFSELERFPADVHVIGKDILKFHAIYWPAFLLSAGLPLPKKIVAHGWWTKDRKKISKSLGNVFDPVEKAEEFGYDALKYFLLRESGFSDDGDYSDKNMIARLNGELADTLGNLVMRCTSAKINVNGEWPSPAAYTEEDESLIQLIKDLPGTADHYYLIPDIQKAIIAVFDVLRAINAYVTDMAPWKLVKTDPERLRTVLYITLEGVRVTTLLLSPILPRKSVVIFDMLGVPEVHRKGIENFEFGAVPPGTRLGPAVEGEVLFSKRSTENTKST

[12] = tested on: INS1; experiment: beta cell apoptosis inhibitors, cytokine rescue, dose response, luminescence, retest (AID 449756); format: functional, cell-based; settings: Rattus norvegicus;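 also: cell death triggered by IL-1 beta plus TNF-alpha plus IFN-gamma mixture; protective hits raise ATP signal compared with cytokine alone wells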
[13] = target: T3, Methionyl-tRNA synthetase, putative; format: functional, Trypanosoma brucei brucei strain 927/4 GUTat10.1; remark: listed apart in the source
[14] = Counterscreen for inhibitors of Trypanosoma brucei methionyl tRNA synthetase (MetRS): Luminescence-based cell-based high throughput dose response assay to identify compounds that are cytotoxic to Jurkat human T lymphocyte cells.; format: functional
[15] = NIH/3T3 fibroblast cytotoxicity, dose response, cytotoxicity control for T. cruzi growth inhibitor project, cell-based, cherry-pick samples, set 2 (AID 651817); format: functional; settings: NIH3T3
[16] = target: T4, Protein RecA (Mycobacterium tuberculosis, UniProt P9WHJ3); experiment: Fluorescence Cell-Free Homogeneous Dose Retest to Identify Inhibitors of RecA-Intein Splicing Activity. [Related pubchem assays (depositor defined):AID2097, AID2223, AID489010, AID492950]; format: functional
T4 sequence (P9WHJ3 whole entry): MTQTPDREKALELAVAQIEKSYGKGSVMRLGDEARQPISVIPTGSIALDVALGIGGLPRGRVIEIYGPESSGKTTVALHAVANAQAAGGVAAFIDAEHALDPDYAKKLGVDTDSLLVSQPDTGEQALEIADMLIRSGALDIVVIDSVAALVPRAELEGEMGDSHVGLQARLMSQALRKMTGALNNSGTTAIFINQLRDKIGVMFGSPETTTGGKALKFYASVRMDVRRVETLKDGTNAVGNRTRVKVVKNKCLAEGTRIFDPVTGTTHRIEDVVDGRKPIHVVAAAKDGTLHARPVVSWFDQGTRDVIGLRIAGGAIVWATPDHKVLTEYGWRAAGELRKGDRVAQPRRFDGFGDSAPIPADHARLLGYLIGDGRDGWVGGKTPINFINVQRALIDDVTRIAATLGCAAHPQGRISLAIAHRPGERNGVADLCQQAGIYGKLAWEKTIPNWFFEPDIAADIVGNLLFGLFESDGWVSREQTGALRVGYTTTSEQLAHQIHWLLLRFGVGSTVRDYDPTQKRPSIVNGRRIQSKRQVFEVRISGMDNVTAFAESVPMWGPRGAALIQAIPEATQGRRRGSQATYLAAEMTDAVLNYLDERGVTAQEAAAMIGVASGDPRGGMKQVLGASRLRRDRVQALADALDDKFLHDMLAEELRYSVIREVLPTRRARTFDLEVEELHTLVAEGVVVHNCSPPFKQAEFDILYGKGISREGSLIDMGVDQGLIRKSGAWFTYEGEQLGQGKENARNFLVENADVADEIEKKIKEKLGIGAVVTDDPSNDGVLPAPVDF

[17] = target: T5, Replicative DNA helicase DnaB (Mycobacterium tuberculosis, UniProt P9WMR3); experiment: DnaB intein splicing inhibitors, dose response, biochemical, cell-free fluorescence (AID 449749); format: functional
T5 sequence (P9WMR3 whole entry): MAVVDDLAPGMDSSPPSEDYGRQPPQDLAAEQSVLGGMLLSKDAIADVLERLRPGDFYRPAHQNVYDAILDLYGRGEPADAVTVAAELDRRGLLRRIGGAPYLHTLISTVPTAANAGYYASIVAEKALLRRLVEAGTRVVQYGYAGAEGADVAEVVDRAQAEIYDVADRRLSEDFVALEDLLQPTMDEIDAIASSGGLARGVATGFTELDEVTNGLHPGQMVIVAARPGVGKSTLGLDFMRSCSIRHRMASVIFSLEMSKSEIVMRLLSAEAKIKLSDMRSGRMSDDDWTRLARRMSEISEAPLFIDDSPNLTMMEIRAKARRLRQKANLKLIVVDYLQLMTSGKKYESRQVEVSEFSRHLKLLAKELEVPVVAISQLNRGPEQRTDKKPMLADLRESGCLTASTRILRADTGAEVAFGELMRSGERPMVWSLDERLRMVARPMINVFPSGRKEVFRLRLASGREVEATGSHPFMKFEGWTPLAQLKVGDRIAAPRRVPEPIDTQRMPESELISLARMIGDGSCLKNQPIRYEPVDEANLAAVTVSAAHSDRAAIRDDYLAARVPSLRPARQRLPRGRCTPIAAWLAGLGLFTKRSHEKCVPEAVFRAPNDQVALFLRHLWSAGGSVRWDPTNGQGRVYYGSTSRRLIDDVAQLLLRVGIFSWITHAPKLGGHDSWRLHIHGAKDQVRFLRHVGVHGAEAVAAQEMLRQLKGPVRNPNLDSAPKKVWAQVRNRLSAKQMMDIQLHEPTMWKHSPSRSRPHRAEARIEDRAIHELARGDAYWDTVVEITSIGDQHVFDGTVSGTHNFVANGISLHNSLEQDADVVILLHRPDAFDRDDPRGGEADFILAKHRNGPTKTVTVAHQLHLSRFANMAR

[18] = target: Beta Lactamase (Pseudomonas aeruginosa, UniProt Q932Y6); experiment: beta-lactamase reporter inhibitor potency, dose response, artefact control for NOD2-RIPK2 interaction inhibitor project, BLA reporter cells, FRET fluorescence (AID 651552); format: functional, cell-based
Sequence of Beta Lactamase (Q932Y6 whole entry): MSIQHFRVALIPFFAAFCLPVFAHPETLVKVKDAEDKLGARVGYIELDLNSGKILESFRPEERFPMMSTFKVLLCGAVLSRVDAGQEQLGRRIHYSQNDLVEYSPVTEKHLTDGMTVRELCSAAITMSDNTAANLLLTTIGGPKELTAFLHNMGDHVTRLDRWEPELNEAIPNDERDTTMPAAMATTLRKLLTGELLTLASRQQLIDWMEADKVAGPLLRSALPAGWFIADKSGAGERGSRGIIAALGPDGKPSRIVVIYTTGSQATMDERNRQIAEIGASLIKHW

[19] = target: T6, Heat shock factor protein 1 (Mus musculus, UniProt P38532); experiment: inhibition of MG132-induced HSE-luciferase signal, confirmation, cell-based, NIH3T3, luminescence, dose retest (AID 2382); format: functional;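 also: NIH3T3 fibroblasts with HSF1-driven luciferase reporter stressed by proteasome inhibitor MG132; luminescence from HSF1-driven luciferase expression after 8 hours of MG132 stress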
T6 sequence (P38532 whole entry): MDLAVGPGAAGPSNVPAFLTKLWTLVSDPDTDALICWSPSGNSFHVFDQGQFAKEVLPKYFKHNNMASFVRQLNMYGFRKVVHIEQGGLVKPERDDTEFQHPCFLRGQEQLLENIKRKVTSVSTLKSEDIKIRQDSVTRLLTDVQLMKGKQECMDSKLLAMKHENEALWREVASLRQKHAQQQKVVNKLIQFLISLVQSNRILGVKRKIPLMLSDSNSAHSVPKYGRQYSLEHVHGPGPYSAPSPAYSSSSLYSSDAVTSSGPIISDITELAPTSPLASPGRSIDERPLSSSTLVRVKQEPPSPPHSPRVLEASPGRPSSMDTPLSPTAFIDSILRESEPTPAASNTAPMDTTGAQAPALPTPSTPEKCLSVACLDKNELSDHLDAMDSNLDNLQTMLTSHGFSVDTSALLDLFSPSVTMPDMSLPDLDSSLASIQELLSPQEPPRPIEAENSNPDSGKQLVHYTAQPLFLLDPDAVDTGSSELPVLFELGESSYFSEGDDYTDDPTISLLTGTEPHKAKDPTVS

[20] = target: Neurotensin receptor type 1 (Homo sapiens, UniProt P30989); format: functional;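 also: Image-based confirmatory dose-response assay measuring agonist activity at NTR1; NTR1-expressing U2OS osteosarcoma cells imaged for beta-arrestin GFP spot formation; agonist potency where compounds increase beta-arrestin recruitment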
Sequence of Neurotensin receptor type 1 (P30989 whole entry, the tested form may be a part): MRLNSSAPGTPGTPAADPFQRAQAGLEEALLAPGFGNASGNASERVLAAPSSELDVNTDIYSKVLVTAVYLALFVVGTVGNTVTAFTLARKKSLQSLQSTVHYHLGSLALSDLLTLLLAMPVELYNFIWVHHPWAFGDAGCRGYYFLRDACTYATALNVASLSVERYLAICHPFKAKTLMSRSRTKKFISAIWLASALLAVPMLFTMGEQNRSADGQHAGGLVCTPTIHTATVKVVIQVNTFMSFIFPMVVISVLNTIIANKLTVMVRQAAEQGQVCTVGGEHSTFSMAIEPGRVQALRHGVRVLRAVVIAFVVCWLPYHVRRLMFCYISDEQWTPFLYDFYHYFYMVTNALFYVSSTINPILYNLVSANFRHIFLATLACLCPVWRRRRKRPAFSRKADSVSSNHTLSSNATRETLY

[21] = Fluorescence-based cell-based high throughput dose response assay for inhibitors of the interaction of nucleotide-binding oligomerization domain containing 2 (NOD2) and the receptor-interacting serine-threonine kinase 2 (RIPK2).; format: functional; settings: Homo sapiens
[22] = target: Mu-type opioid receptor (Homo sapiens, UniProt P35372); experiment: HTS Image-Based Screen for Agonists of the MOR Receptor. [Related pubchem assays (depositor defined):AID1777, AID1785, AID1786, AID2133]; format: functional;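 also: imaging of beta-arrestin GFP recruitment into spots after receptor activation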
Sequence of Mu-type opioid receptor (P35372 whole entry): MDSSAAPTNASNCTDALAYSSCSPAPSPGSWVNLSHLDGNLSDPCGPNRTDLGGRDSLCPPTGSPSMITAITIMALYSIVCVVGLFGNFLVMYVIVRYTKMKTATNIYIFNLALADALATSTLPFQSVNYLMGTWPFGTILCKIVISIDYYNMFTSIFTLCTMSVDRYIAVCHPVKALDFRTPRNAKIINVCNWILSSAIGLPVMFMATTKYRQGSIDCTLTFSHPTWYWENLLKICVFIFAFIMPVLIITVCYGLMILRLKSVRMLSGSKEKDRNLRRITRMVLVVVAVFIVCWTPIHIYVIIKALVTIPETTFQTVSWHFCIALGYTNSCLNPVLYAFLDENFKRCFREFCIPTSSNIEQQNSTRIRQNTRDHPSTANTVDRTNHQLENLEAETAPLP

[23] = target: T7, Rac GTPase-activating protein 1 (Homo sapiens, UniProt Q9H0H5); experiment: MgcRacGAP GTPase-activating activity inhibitors, confirmation, biochemical, ADP Hunter fluorescence, primary and confirmatory (AID 624330); format: functional
T7 sequence (Q9H0H5 whole entry): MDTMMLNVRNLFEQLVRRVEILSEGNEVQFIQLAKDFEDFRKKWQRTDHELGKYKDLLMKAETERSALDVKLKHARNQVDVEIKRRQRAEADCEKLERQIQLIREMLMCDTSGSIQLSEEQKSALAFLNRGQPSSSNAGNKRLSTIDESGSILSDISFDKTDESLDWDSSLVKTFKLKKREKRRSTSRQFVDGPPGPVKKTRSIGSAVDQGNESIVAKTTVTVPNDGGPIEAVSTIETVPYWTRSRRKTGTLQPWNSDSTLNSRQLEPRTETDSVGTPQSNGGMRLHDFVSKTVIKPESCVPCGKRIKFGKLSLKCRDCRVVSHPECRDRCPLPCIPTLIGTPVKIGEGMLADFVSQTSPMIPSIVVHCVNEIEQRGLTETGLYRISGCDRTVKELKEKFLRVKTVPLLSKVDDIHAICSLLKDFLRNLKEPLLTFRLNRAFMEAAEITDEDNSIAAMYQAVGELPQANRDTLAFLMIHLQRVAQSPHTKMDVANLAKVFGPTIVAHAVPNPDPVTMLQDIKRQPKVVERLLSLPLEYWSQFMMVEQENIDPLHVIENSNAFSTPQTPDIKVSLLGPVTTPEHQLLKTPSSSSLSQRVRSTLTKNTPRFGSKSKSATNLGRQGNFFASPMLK

[24] = HeLa cell cytotoxicity, dose response, cytotoxicity control for MgcRacGAP inhibitor project (AID 624300); format: functional
[25] = target: T8, Delta-type opioid receptor (Homo sapiens, UniProt P41143); experiment: HTS Image-Based Screen for Agonists of the DOR Receptor. [Related pubchem assays (depositor defined):AID1777, AID1786, AID2133]; format: functional
T8 sequence (P41143 whole entry): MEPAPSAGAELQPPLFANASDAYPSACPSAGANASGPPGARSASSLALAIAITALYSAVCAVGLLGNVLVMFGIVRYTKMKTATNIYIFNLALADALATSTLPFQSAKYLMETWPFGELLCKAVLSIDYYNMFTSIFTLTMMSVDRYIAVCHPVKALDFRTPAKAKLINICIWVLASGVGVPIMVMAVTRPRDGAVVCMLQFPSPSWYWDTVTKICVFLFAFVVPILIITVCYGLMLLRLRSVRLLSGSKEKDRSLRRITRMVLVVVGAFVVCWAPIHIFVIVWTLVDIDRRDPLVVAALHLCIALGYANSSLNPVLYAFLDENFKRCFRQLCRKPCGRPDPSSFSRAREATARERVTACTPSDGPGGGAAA

[26] = target: T9, Kappa-type opioid receptor (Homo sapiens, UniProt P41145); format: functional
T9 sequence (P41145 whole entry): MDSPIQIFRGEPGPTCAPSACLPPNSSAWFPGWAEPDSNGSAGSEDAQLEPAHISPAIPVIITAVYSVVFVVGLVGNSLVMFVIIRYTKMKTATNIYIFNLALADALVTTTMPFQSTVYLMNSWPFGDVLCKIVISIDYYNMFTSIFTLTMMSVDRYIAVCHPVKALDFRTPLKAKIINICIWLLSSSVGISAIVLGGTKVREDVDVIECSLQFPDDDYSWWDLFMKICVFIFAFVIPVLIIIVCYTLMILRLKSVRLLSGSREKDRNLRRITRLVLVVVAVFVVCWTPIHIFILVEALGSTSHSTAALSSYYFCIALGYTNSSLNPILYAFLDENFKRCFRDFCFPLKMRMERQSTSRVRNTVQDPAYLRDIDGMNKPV

[27] = target: T8, Delta-type opioid receptor; experiment: HTS Image-Based Screen for Antagonists of the DOR Receptor. [Related pubchem assays (depositor defined):AID1777, AID1785, AID1786, AID2133]; format: functional
[28] = target: Beta-galactosidase (Escherichia coli, UniProt Q8VNN2); format: functional
Sequence of Beta-galactosidase (Q8VNN2 whole entry): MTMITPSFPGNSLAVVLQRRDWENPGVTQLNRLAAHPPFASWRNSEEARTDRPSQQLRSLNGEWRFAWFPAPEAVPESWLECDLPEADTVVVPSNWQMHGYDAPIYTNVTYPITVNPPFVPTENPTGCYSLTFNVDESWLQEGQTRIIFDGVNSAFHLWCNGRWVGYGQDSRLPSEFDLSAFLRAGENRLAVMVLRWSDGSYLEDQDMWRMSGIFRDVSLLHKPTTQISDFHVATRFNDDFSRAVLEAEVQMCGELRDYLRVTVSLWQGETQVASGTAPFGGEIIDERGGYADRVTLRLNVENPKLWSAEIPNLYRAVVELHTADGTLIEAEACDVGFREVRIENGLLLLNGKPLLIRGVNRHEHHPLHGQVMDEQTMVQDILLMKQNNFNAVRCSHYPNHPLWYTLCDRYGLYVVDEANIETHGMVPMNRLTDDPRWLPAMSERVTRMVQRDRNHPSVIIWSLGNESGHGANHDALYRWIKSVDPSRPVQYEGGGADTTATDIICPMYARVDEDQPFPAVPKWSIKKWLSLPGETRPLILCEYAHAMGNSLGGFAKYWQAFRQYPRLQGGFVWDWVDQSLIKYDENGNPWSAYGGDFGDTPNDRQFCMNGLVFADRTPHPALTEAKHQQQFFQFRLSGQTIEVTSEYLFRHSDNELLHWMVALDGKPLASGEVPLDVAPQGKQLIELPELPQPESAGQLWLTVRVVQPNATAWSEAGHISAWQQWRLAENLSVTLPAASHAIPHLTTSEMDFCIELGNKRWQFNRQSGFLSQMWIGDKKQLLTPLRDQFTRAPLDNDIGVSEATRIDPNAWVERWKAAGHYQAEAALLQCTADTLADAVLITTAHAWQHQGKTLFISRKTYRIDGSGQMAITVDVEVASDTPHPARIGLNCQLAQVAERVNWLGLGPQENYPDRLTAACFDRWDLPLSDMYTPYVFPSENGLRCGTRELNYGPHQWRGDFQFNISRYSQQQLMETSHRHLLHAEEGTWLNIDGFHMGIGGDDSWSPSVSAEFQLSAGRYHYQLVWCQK

[29] = target: T9, Kappa-type opioid receptor; format: functional; remark: listed apart in the source

Sequence of Long-chain-fatty-acid--AMP ligase FadD28 (P9WQ59 whole entry): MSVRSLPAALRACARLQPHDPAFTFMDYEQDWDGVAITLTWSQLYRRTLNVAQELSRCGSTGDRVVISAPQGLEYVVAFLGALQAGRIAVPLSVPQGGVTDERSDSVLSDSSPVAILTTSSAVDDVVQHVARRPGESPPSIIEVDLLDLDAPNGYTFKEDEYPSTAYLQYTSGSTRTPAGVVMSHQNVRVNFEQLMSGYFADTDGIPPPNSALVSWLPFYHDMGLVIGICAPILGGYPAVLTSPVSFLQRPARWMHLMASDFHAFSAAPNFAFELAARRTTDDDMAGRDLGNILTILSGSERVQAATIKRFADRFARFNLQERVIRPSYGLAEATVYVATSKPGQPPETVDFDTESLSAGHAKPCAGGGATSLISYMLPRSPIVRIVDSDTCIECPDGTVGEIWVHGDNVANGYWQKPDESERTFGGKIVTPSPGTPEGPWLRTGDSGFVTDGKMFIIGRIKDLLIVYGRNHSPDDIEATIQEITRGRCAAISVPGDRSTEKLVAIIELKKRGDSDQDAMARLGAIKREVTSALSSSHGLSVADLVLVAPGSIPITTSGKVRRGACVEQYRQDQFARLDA

COc1cc([N+](=O)[O-])ccc1N=C(S)NNC(=O)c1ccc2c(c1)OCO2
AC50 [1]: > 100 µM (inactive)

CC(=O)N1N=C(c2ccccc2)OC1c1ccc([N+](=O)[O-])s1 (stereo unspecified)
IC50 [2]: 6.39 µM (active)
AC50 [3]: 14.3 µM (active)
EC50 [4]: 10.8 µM (active)
EC50 [5]: 1.79 µM (active)
IC50 [6]: 6.49 µM (active)
AC50 [7]: 39.3 µM (active)
IC50 [8]: 48.3 µM (active)
IC50 [9]: 43.3 µM (active)
AC50 [10]: 8.37 µM (active)

O=C(NCc1nc2ccccc2[nH]1)C1=C[C@@H](C2CCCCC2)C[C@@H](OCc2ccc(CO)cc2)O1
IC50 [11]: 2.85 µM (active)
AC50 [12]: 13.1 µM (active)
IC50 [13]: 6.42 µM (active)
IC50 [14]: 38.9 µM (inactive)

C[C@H](CO)N1C[C@H](C)[C@H](CN(C)S(=O)(=O)c2ccccc2)Oc2c(NC(=O)c3nc4ccccc4s3)cccc2C1=O
AC50 [15]: 22.6 µM (active)

Cn1ccnc1Sc1cc(NCCCO)c([N+](=O)[O-])c2nonc12
EC50 [16]: 3.32 µM (active)
AC50 [17]: 8.37 µM (active)
IC50 [18]: 18.2 µM (inactive)
EC50 [19]: 11.8 µM (active)
EC50 [20]: 13.2 µM (active)
IC50 [21]: 5.86 µM (active)

COc1cc(/C=C/c2sc3ccccc3[n+]2CCCS(=O)(=O)[O-])ccc1O
EC50 [16]: 16.2 µM (active)
AC50 [17]: > 380 µM (inactive)
EC50 [22]: > 32 µM (inactive)
IC50 [23]: 20.5 µM (active)
CC50 [24]: 100 µM (active)
EC50 [25]: > 32 µM (inactive)
IC50 [26]: 19.1 µM (active)
IC50 [27]: > 32 µM (inactive)
EC50 [28]: 14.1 µM (active)
IC50 [29]: > 32 µM
